# Patent US20140221472A1, “USE OF MYRICETIN OR DERIVATIVES THEREOF AS A CATHEPSIN K INHIBITOR” (JILINSHENG JINZIYUAN BIOTECHNOLOGY LTD, priority 2013, published 2014)
# How the values were obtained:
# [1] = cited from earlier work
# cathepsin K [2] = molecular target: T1, cathepsin K (Homo sapiens, UniProt P43235); experiment: Cathepsin K activity with fluorogenic substrate HD-Ala-Leu-Lys-AMC; type: biochemical; set-up: made in house; conditions: 100,200,500,1000 uM; fluorescence 390/460 nm; effect enhanced as concentration increased
# T1 sequence (P43235 115-329): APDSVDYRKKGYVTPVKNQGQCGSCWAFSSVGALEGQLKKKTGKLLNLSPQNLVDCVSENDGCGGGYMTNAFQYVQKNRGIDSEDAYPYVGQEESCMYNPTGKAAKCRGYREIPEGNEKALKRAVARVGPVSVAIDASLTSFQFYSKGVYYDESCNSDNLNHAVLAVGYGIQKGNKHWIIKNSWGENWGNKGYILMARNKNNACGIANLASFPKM
# Experimental: Using a Fluoroskan Ascent, recombinant cathepsin K inhibition ratios with different concentration of myricetin were calculated after completion of the reaction and the IC50 value was determined.
# In order to determine the inhibitory effect of myricetin on cathepsin K activity, a cathepsin. K specific fluorogenic substrate HD-Ala-Leu-Lys-AMC (Cat. No. 104881-72-3, purchased from GL Biochem (Shanghai) Co., Ltd.) was used and Cary Eclipse fluorescence spectrophotometer (Agilent Technologies Inc., Beijing) for quantitative analysis was applied. 1 ug of cathepsin K-specific fluorogenic substrate HD-ALK-AMC, 1 ug cathepsin K, myricetin compounds dissolved in 20% ethanol with final concentrations of 100,200,500,1000 uM were added into 50 mM of phosphate buffer. An additional 50 mM of phosphate buffer (pH6.0) was added to bring a total volume of 500 uL. And the reaction sample was inhibited at 37° C. for 15 hours in a water bath. As a positive control without any candidate compound, 1 ug of cathepsin K specific fluorogenic substrate HD-ALK-AMC and 1 ug of cathepsin K, and 50 mmol phosphate buffer solution (pH6.0) were added to bring a total volume of 500 uL. […] After completion of the reaction, the samples were measured at 390 nm excitation wavelength and 460 nm emission wavelength for fluorescence intensity changes assay, and the value of cathepsin K activity was calculated.
# [3] = left in air; becomes green; cited from earlier work
# [4] = tested on: type II collagen-induced arthritis mice; experiment: Bovine type II collagen-induced arthritis in mice; type: in vivo
# Experimental: Firstly, same strains and sources of animals as shown in Example 2 were selected, and total 105 of 9-week-old BALB / C mice were fed under the same conditions. There were 70 mice that each had subcutaneous injection of 200 ug of Freund's adjuvant emulsified bovine type II collagen. 15 days after the first immunization, subcutaneous injection was applied again at 200 ug per mouse with incomplete Freund's adjuvant emulsified bovine type H collagen to strengthen the immunity. After 24 days of the first injection, the 70 mice were divided into two groups, of which 35 mice were treated with myricetin intake orally 25 mg/kg body weight daily as a treated-group, while the other 35 were the model control group fed normally without myricetin. The remaining 35 mice were the normal control group without immunization and fed with normal food, used as a blank control.
# Throughout the testing period, arthritis conditions of the mice and arthritic conditions after the treatment were observed. After immunization with type II collagen on mice, the conventional methods were used by measuring the degree of paw swelling (thickness) (see FIG. 3) and weight change (see FIG. 4), and myricetin therapeutic effects were monitored and evaluated throughout the procedure (0.5 mm increased thickness for one magnitude) (see FIG. 5).
# On the 48 day, the blood from the heart was extracted, and the serum was separated, meanwhile all mice were killed. The mouse urinary deoxypyridinoline (urinary deoxypyridinoline) (see FIG. 6), type I collagen C telopeptide (CTX-I) (see FIG. 7) and serum cartilage oligomeric matrix protein (COMP) were examined, and histological treatment evaluation were conducted (see FIG. 8).
# The mouse urinary deoxypyridinolineideoxypyridinoline kit (DPD kit from Shanghai Huyu Biotech Co., Ltd., No. HY-E3170B) was used. According to the instructions provided, iMark-BIO-RAD microplate reader (U.S. BIO-RAD) was used to detect the concentration of mouse urinary deoxypyridinoline at 450 wavelength (see FIG. 6).
# Rat C-terminal peptide of type I collagen (CTX-I) ELISA Kit from Shanghai Jima Biotech Co., Ltd., NO Wk30026) was used. According to the method provided by the kit instruction, the change in the content of type I collagen C-terminal peptide in mice serum was detected to evaluate the effect that myricetin prevented type I collagen degradation by suppressing cathepsin K (see FIG. 7).
# The cartilage oligomeric matrix protein ELISA kit (from Shanghai Yihan Biotech Co., Ltd., No. SU10580) was used.
# After killing of the mice, the paws were fixed with 4% formaldehyde for 24 hours, then decalcificated using 500 mmol of EDTA […]. The paraffin sections were prepared using the conventional method and stained with hematoxylin / eosin staining method. […] The synovial surface almost disappeared with a rough surface in a grid pattern, and there were a large number of macrophages. […] It can be concluded that by myricetin therapeutic administration, the mice arthritis is mostly recovered (see FIG. 9).
# Based on mice joint tissue sections, according to methods from Larsson et. al. (Rheumatology (Oxford), 2004, 43 (4),428-434),the therapeutic effect of myricetin on rheumatoid arthritis in mice was evaluated, as well as the degree of arthritis. Main evaluation were based on: (1) the size of the joint cavity, inflammatory cell infiltration, cartilage damage and fibrin deposition. From three individual evaluations, it was divided into three levels, which are 0 for normal, level 1 for the light degree of arthritis, level 2 for the moderate arthritis and level 3 for severe arthritis (see FIGS. 3 and 5). (2) The weight change (see FIG. 4). (3) histology examination (see FIG. 9) and evaluation (see FIGS. 10 and 11).
# BALB/C mice = experiment: Maximum tolerated dose acute toxicity test; type: in vivo; conditions: 100 g/kg body weight, single gavage, observed 2 weeks
# Source text: BALB/C mice were bred by Harbin Veterinary Research Institute of Experimental Animal Center, Chinese Academy of Agricultural Sciences, and the animal quality permit number is Heilongjiang-SYXK 2006-032. The selection conditions are age at 9 weeks to 10 weeks, weighing about 20 g, half male and half female.
# The animal laboratory had regular air ventilation, good lighting, and constant laboratory room temperature. There were five mice per cage, and they were fed with extruded feed produced specifically for mice, with free access to drinking water.
# Firstly, the acute toxicity tests were conducted on to evaluate the safety of myricetin in order to provide the basis for the therapeuticapplication of myricetin. In this study, the maximum tolerated dose acute toxicity test was used. Twenty of BALB/C mice with the healthy body weight about 20 g, half male and half femalewere selected, The clinical intended route of administration is oral, so this experiment used intragastric administration. Myricetin (purchased from Shanghai Chemical Co., Ltd. Item No. A0145, Myricetin; 3,5,7,3,4′,5′-hexahydroxyflavone, CAS No: 529-44-2. Pure and natural extracts, purity ismore than 98.5% confirmed by NMR and HPLC purity analysis) was modulated into a stick-like with distilled water. Dosed at […] body weight, gavage was conducted to the mice (about 200 mg myricetin per mouse). […]
# cathepsin K [5] = molecular target: T1, cathepsin K; experiment: Cathepsin K induced collagen degradation, SDS-PAGE screening; type: biochemical; set-up: made in house; host or cells: yeast cells (the cited Linnevers et al. method uses Pichia pastoris); conditions: 100 uM myricetin, collagen type I/II substrate, pH 6.0, 37° C., 15 hours
# Source text: A series of Chinese herbal medicine of monomer myricetin were purchased from Shanghai Jingke Chemical Co., Ltd.,(Cat. No. A0145, 3,5,7,3′, 4′, 5′-hexahydroxyflavone, CAS No: 529-44-2). It was purified from natural plant (the purity is more than 98.5% confirmed by NMR and HPLC purity assay) and was used as an inhibitor candidate compound. Meanwhile, collagen type I (Cat No. SU2087) and collagen type II (Cat No. SU2088) were purchased from SIGMA and were used as a substrate for cathepsin K. For screening experiments, […] and 1 ug cathepsin K were added into 50 mM phosphate buffer (pH6.0), then myricetin compounds dissolved in 20% ethanol were added with the final concentrations of 100,200,500,1000 uM, respectively, finally an additional 50 mM of phosphate buffer (pH 6.0) was added again to bring a total volume of 500 uL. The reactions were incubated at 37° C. for 15 hours in a water bath. As a positive control without any candidate compound, 100 ug collagen, […], and 50 mM phosphate buffer solution (pH6.0) were added to bring a total volume of 500 uL. […] After completion of the reactions, the reaction samples were applied to 10% SDS-PAGE gel electrophoresis, coomassie blue staining and destaining, and the intensity of the stained protein bands were analyzed. […]
smiles,measurement,setting,value
"O=c1c(O)c(-c2cc(O)c(O)c(O)c2)oc2cc(O)cc(O)c12 [myricetin, 3,5,7-Trihydroxy-2-(3,4,5-trihydroxyphenyl)-4H-1-benzopyran-4-one]",solubility in chloroform and petroleum,[1]; chloroform and petroleum,insoluble
same,"solubility in methanol, ethanol, aceton, ethyl acetate","[1]; methanol, ethanol, aceton, ethyl acetate",soluble
same,solubility in water,[1]; water,slightly soluble
same,inhibitory effect on cathepsin K activity,cathepsin K [2],significant inhibitory effect
same,stability to oxidation,[3],easily oxidized
same,"arthritis symptoms (paw swelling, clinical score)","[4]; 25 mg/kg daily orally from day 24 to 48, vs immunized mice",significantly improved
same,degree of arthritis,"[4]; 25 mg/kg p.o., compared with the model group, P<0.05",significantly reduced
same,concentration of urinary deoxypyridinoline,"[4]; 25 mg/kg p.o., day 48, ELISA, vs control group, P<0.001",significantly lower
same,content of type I collagen C-terminal peptide in mice serum,"[4]; 25 mg/kg p.o., day 48, ELISA, vs model control group, P<0.001",significantly lower
same,content of cartilage oligomeric matrix protein in mice serum,"[4]; 25 mg/kg p.o., day 48, ELISA, vs model control group, P<0.005",significantly lower
same,synovial surface pathological changes (histology),"[4]; 25 mg/kg p.o., day 48, hematoxylin/eosin paw sections",significantly reduced pathological changes
same,focal hyperplasia of the synovial lining cells,"[4]; end of study, ankle joint sections, hematoxylin and eosin, FIG. 9",undetectable
same,hind leg swelling and redness with ankle joint thickening,"[4]; end of study, representative photographs, FIG. 9",attenuated
same,symptoms of poisoning and death,BALB/C mice,free of any symptoms of poisoning
same,inhibition of the cathepsin K activity (collagen degradation),cathepsin K [5],complete inhibition
